From ChEMBL document CHEMBL5625204, “Synthesis and pharmacodynamic evaluation of naphthalene derivatives against influenza A virus in vitro and in vivo” (Eur J Med Chem, 2023)
Activity calls are given as the source filed them. The rule behind the calls is not given here.

What was measured:
Influenza A virus [1] = assay: Antiviral activity against Influenza A virus H1N1 (A/Weiss/43)-infected in dog MDCK cells assessed as reduction in oxidative stress by measuring proportion of normal cells at 25 uM treated at 2 hrs post-infection and measured after 36 hrs by DCFH-DA staining based flow cytometry (reference value: 69.4%); assay type: functional; parameters: scale not given: the % may be the effect or the level left
Influenza A virus [2] = assay: Inhibition of Influenza A virus replication infected in dog MDCK cells assessed as downregulation of virus M gene expression at 25 to 50 uM measured after 24 to 72 hrs post-infection by qRT-PCR analysis; assay type: functional, organism-based; conditions: dose 25-50 µM
[3] = Selectivity index, ratio of CC50 for dog MDCK cells to EC50 for antiviral activity against Influenza A virus H1N1 (A/Weiss/43) infected in MDCK cells treated for 2 hrs during viral adsorption and measured after 72 hrs; assay type: toxicity, cell-based; conditions: read-out: Ratio CC50/EC50
Influenza A virus [4] = assay: Antiviral activity against Influenza A virus H1N1 infected in human A549 cells assessed as decrease in RIG-1 pathway related gene expression by measuring decrease in RIG-1 gene expression at 25 to 50 uM measured after 24 hrs by qRT-PCR analysis; assay type: functional, organism-based; conditions: dose 25-50 µM
Influenza A virus [5] = assay: Antiviral activity against Influenza A virus H1N1 (A/Weiss/43)-infected in BALB/c mouse assessed as reduction in RIG-1 gene expression in lungs at 25 to 100 mg/kg/day administered intranasally for 6 days starting from 3 hrs post-viral infection by qRT-PCR analysis; assay type: functional, organism-based; conditions: dose 25-100 mg/kg/day, route nas, time 6.0 day
Influenza A virus [6] = assay: Antiviral activity against Influenza A virus H1N1 (A/Virginia/ATCC2/2009) infected in MDCK cells assessed as reduction of viral replication incubated for 72 hrs by TCID50 method; assay type: functional, organism-based
Influenza A virus [7] = assay: Antiviral activity against Influenza A virus H1N1 infected in dog MDCK cells assessed as decrease in apoptosis by measuring proportion of late apoptotic cells at 25 uM measured after 72 hrs by AnnexinV-FITC/PI staining based flow cytometry (reference value: 10.3%); assay type: functional; parameters: scale not given: the % may be the effect or the level left
Influenza A virus [8] = assay: Antiviral activity against Influenza A virus H1N1 infected in dog MDCK cells assessed as decrease in apoptosis by measuring proportion of necrotic cells at 50 uM measured after 72 hrs by AnnexinV-FITC/PI staining based flow cytometry (reference value: 2.47%); assay type: functional; parameters: scale not given: the % may be the effect or the level left
Influenza A virus [9] = assay: Antiviral activity against Influenza A virus H1N1 infected in human A549 cells assessed as decrease in cytokine gene expression by measuring decrease in TNF-alpha gene expression at 25 to 50 uM measured after 24 hrs by qRT-PCR analysis; assay type: functional, organism-based; conditions: dose 25-50 µM
Influenza A virus [10] = assay: Inhibition of Influenza A virus replication infected in dog MDCK cells assessed as downregulation of virus M2 protein expression by measuring decrease in green fluorescence intensity at 25 to 50 uM measured after 24 hrs by immunofluorescence analysis; assay type: functional, organism-based; conditions: dose 25-50 µM
Influenza A virus [11] = assay: Antiviral activity against Influenza A virus H1N1 (A/Weiss/43)-infected in BALB/c mouse assessed as reduction in MyD88 gene expression in lungs at 25 to 100 mg/kg/day administered intranasally for 6 days starting from 3 hrs post-viral infection by qRT-PCR analysis; assay type: functional, organism-based; conditions: dose 25-100 mg/kg/day, route nas, time 6.0 day
Influenza A virus [12] = assay: Antiviral activity against Influenza A virus infected in human A549 cells assessed as reduction of viral replication at 6.25 to 100 uM incubated for 72 hrs by TCID50 method; assay type: functional, organism-based; conditions: dose 6.25-100 µM
Influenza A virus [13] = assay: Antiviral activity against Influenza A virus H1N1 infected in human A549 cells assessed as decrease in apoptosis by measuring decrease in cleaved caspase-7 protein expression at 25 to 50 uM measured after 24 hrs by western blot analysis; assay type: functional, organism-based; conditions: dose 25-50 µM
Influenza A virus [14] = assay: Antiviral activity against Influenza A virus H1N1 (A/Weiss/43)-infected in BALB/c mouse assessed as reduction in lung index at 100 mg/kg/day administered intranasally for 6 days starting from 3 hrs post-viral infection; assay type: functional; conditions: 144 h, route nas, time 6 day
Influenza A virus [15] = assay: Antiviral activity against Influenza A virus H1N1 (A/Weiss/43)-infected in BALB/c mouse assessed as reduction in IL-6 gene expression in lungs at 25 to 100 mg/kg/day administered intranasally for 6 days starting from 3 hrs post-viral infection by qRT-PCR analysis; assay type: functional, organism-based; conditions: dose 25-100 mg/kg/day, route nas, time 6.0 day
Influenza A virus [16] = assay: Antiviral activity against Influenza A virus H1N1 (A/Weiss/43)-infected in BALB/c mouse assessed as reduction in viral M mRNA expression in lungs at 25 to 100 mg/kg/day administered intranasally for 2 to 6 days starting from 3 hrs post-viral infection by qRT-PCR analysis; assay type: functional, organism-based; conditions: dose 25-100 mg/kg/day, route nas, time 2-6 day
Influenza A virus [17] = assay: Antiviral activity against Influenza A virus H1N1 (A/Weiss/43)-infected in BALB/c mouse assessed as reduction in TNF-alpha gene expression in lungs at 25 to 100 mg/kg/day administered intranasally for 6 days starting from 3 hrs post-viral infection by qRT-PCR analysis; assay type: functional, organism-based; conditions: dose 25-100 mg/kg/day, route nas, time 6.0 day
Influenza A virus [18] = assay: Antiviral activity against Influenza A virus H1N1 (A/Weiss/43) infected in MDCK cells assessed as reduction of viral replication treated for 2 hrs during viral adsorption and measured after 72 hrs by TCID50 method; assay type: functional, organism-based
[19] = Toxicity in dog MDCK cells assessed as proportion of necrotic cells at 50 uM measured after 72 hrs by AnnexinV-FITC/PI staining based flow cytometry (reference value: 1.4%); assay type: cell-based, Canis lupus familiaris
Influenza A virus [20] = assay: Antiviral activity against Influenza A virus H1N1 (A/Weiss/43)-infected in BALB/c mouse assessed as reduction in IFN-beta gene expression in lungs at 25 to 100 mg/kg/day administered intranasally for 6 days starting from 3 hrs post-viral infection by qRT-PCR analysis; assay type: functional, organism-based; conditions: dose 25-100 mg/kg/day, route nas, time 6.0 day
[21] = Cytotoxicity against dog MDCK cells assessed as reduction in cell viability incubated for 72 hrs by MTT assay; assay type: toxicity, cell-based, Canis lupus familiaris
Influenza A virus [22] = assay: Antiviral activity against Influenza A virus H1N1 (A/Weiss/43)-infected in BALB/c mouse assessed as improvement in body weight at 25 to 100 mg/kg/day administered intranasally for 6 days starting from 3 hrs post-viral infection; assay type: functional, organism-based; conditions: dose 25-100 mg/kg/day, route nas, time 6.0 day
Influenza A virus [23] = assay: Antiviral activity against Influenza A virus H1N1 (A/Weiss/43)-infected in BALB/c mouse assessed as reduction in lung index at 50 mg/kg/day administered intranasally for 6 days starting from 3 hrs post-viral infection; assay type: functional; conditions: 144 h, route nas, time 6 day
Influenza A virus [24] = assay: Antiviral activity against Influenza A virus H1N1 infected in human A549 cells assessed as decrease in RIG-1 pathway related protein expression by measuring decrease in NF-kappaB p65 protein expression at 25 to 50 uM measured after 24 hrs by western blot analysis; assay type: functional, organism-based; conditions: dose 25-50 µM
Influenza A virus [25] = assay: Antiviral activity against Influenza A virus H1N1 infected in human A549 cells assessed as decrease in cytokine gene expression by measuring decrease in IL-1 beta gene expression at 25 to 50 uM measured after 24 hrs by qRT-PCR analysis; assay type: functional, organism-based; conditions: dose 25-50 µM
[26] = Toxicity in BALB/c mouse infected with Influenza A virus H1N1 (A/Weiss/43) assessed as kidney pathological changes at 25 to 100 mg/kg/day administered intranasally for 6 days starting from 3 hrs post-viral infection by Hematoxylin-Eosin staining based analysis; assay type: organism-based; conditions: in vivo, inhaled_or_intranasal, 144 h, dose 25-100 mg/kg/day, route nas, time 6 day
[27] = Toxicity in dog MDCK cells assessed as proportion of late apoptotic cells at 50 uM measured after 72 hrs by AnnexinV-FITC/PI staining based flow cytometry (reference value: 3.45%); assay type: cell-based, Canis lupus familiaris

O=[N+]([O-])c1ccc(S(=O)(=O)N(Cc2ccccc2)c2cccc3ccccc23)cc1
Activity (Influenza A virus [1]): 87.7% | inhibition (Influenza A virus [2]): Active | selectivity ratio at 72 h [3]: > 131 | inhibition (Influenza A virus [4]): Active | Activity (Influenza A virus [5]): Active | EC50 (Influenza A virus [6]): 3.34 µM | Activity (Influenza A virus [7]): 1.21% | Activity (Influenza A virus [8]): 0.6% | inhibition (Influenza A virus [9]): Active | inhibition (Influenza A virus [10]): Active | Activity (Influenza A virus [11]): Active | Activity (Influenza A virus [12]): Active | inhibition (Influenza A virus [13]): Active | inhibition in vivo at 100 mg/kg/day (Influenza A virus [14]): 43.3% | Activity (Influenza A virus [15]): Active | Activity (Influenza A virus [16]): Active | Activity (Influenza A virus [17]): Active | EC50 (Influenza A virus [18]): 6.09 µM | Activity [19]: 0.82% | Activity (Influenza A virus [20]): Active | CC50 at 72 h [21]: > 800 µM | Activity (Influenza A virus [22]): Active | inhibition in vivo at 50 mg/kg/day (Influenza A virus [23]): 28.8% | inhibition (Influenza A virus [24]): Active | inhibition (Influenza A virus [25]): Active | Activity [26]: Non-Toxic | Activity [27]: 0.71%
